According to US20120064008A1, “COMPOSITIONS FOR THE TREATMENT OF METASTATIC CANCER AND METHODS OF USE THEREOF” (priority 2009, published 2012):
Like-named read-outs stand apart in the source and are kept apart here. Blank lines part the entries; values can stand above or below the compound they belong to.

Experiments:
[1] = test system: PC-3M cells; test: Normalized mitotic index (histone H3 phospho-Serine-28), PC-3M; assay type: cell-based; details: Homo sapiens, at 1 μM, normalized against vehicle-treated cells, read-out: Normalized mitotic index PC-3M
Text: (§1) The mitotic index for each agent was normalized against those obtained from vehicle-treated cells, and compared with the activity of paclitaxel, a known inducer of mitotic arrest.

[2] = test system: PC3M human prostate cancer cells; test: Cyquant cell viability assay, PC3M; assay type: cell-based; details: Homo sapiens, PC-3M
Protocol: (§2) PC3M and PC3MLN4 cells were treated with vehicle, fenbendazole in DMSO, and fenbendazole in DMSO/NMP/TWEEN®-80/CrEL in varying doses for 72 hours. Cell viability assays using Cyquant reagent (Invitrogen, C7026) were performed as described in the literature. […] cells were seeded in 96 well plates overnight, before treated with either vehicle or benzimidazole solubilized in DMSO alone or in DMSO (12.5%)/NMP ([…])/TWEEN®-80 (25%)/Cr-EL (25%) for 72 hours. Cells were harvested by removing the media, washing once with phosphate buffered saline (PBS) and freezing at −80° C. for overnight. After thawing to room temperature, Cyquant reagent were prepared and added to the wells and the fluorescence intensity were measured with a spectrometer at 485 nm. Percent control was calculated by dividing the reading from drug-treated cells with the reading from vehicle-treated cells.
(§3) ED50 values were calculated from dose-effect analysis performed with Compusyn using data from the Cyquant cell viability assays.
(§4) ED50 values were calculated from dose-effect analysis performed with Compusyn using data from the Cyquant cell viability assays. All benzimidazoles drugs were solubilized in the combination carrier.

[3] = test system: PC3MLN4 human prostate cancer cells; test: Cyquant cell viability assay, PC3MLN4
Protocol: as §2, §3, §4

[4] = test system: PC3MLN4 cells; test: Annexin V/7-AAD apoptosis by flow cytometry, PC3MLN4
Protocol: (§5) Annexin V/7-amino-actinomycin D labeling was done according to the manufacturer's instructions (BD Pharmingen, 559763) and samples were analyzed by flow cytometry. Briefly, the cells were treated for 72 hours with either vehicle or 1 μM benzimidazole drugs, solubilized in the combination carrier. Cells were trypsinized and washed with PBS before resuspending in assay binding buffer. Annexin V and 7-amino-actinomycin labeling was performed at room temperature for 15 minutes before analysis by flow cytometry (BD FACScan). Cells positively stained for annexin V in the lower right quadrant and upper right quadrant indicate early and late apoptosis, respectively.
All benzimidazole drugs were solubilized in the combination carrier. After 72 hours, the cells were analyzed by annexin V/7-AAD staining. Cells positively stained for annexin V in the lower right quadrant and upper right quadrant indicate early and late apoptosis, respectively.

[5] = test system: AT6.1 cells; test: Normalized mitotic index (histone H3 phospho-Serine-28), AT6.1; assay type: cell-based; details: Rattus norvegicus, at 1 μM; normalized against vehicle-treated cells; read-out: Normalized mitotic index AT6.1
Text: as §1

[6] = test system: paclitaxel-resistant DU145-TR prostate cancer cells; test: Cyquant cell viability assay, DU145-TR; assay type: cell-based, human; details: Homo sapiens; 72 hours; paclitaxel-resistant; read-out: ED50 DU145-TR
Protocol: (§6) The cytotoxic effects of paclitaxel, fenbendazole, and albendazole were compared in paclitaxel-resistant PC3-TR and DU145-TR prostate cancer cells with their paclitaxel-sensitive counterparts, PC3 and DU145 cells. Cells were treated for 72 hours with vehicle, paclitaxel, fenbendazole or albendazole in various doses. Cell viability was measured using Cyquant assay, and percent control was calculated by dividing the fluorescent reading from drug-treated cells with those from vehicle-treated cells, indicating percentage of cell survival.

[7] = test system: multidrug resistant MES-SA/Dx5 human uterine sarcoma cells; test: Cell viability, MES-SA/Dx5; assay type: cell-based; details: read-out: ED50 MES-SA/Dx5
Text: (§7) Benzimidazoles retain their anti-tumor activity in these paclitaxel-resistant cells, with higher potency when compared to the parental cells (see Table 4). Cells resistant to microtubule-stabilizing drugs such as the taxanes are more susceptible to microtubule-disrupting agents. To confirm this, human uterine sarcoma MES-SA/Dx5 cells, which are cross-resistant to various chemotherapeutic agents, including the microtubule-disrupting agents vincristine and colchicine, were used.

[8] = test system: DU145 human prostate cancer cells; test: Cyquant cell viability assay, DU145; assay type: cell-based; details: DU-145, 72 hours, read-out: ED50 DU145
Protocol: as §6

[9] = test system: paclitaxel-resistant PC3-TR prostate cancer cells; test: Cyquant cell viability assay, PC3-TR; assay type: cell-based, human; details: Homo sapiens; 72 hours; paclitaxel-resistant; read-out: ED50 PC3-TR
Protocol: as §6

[10] = test system: PC3 cells; test: % apoptotic cells, PC3; assay type: cell-based, human; details: 1 μM
[11] = test system: AT6.1 Dunning rat prostate carcinoma; test: Tumor burden by blood Gaussia luciferase assay in AT6.1 model; assay type: in vivo, nu/nu mice; details: 100 mg/kg
Text: Similar to the survival model, treatment was not begun until day 5 when micrometastases were confirmed growing in the lung. For this approach, the AT6.1 cells were engineered to express secreted Gaussia luciferase enzyme. Using measurement of luciferase activity from the peripheral blood as an indicator of overall tumor burden, a significant reduction of tumor burden in the lungs of benzimidazole-treated animals when compared to vehicle-treated mice was observed. After 22 days, the mice were sacrificed and the lungs examined for viable tumor colonies.
Blood Gaussia luciferase assay was performed as described in the literature. Briefly, 10-20 μL peripheral blood was collected from the animals once a week via the retro-orbital vein. Secreted GAR luciferase activity was measured using a luminometer by adding 100 μL of 100 μM coelentrazine (Prolume, Nanolight, #303) to 5 μL blood and 2 μL of 20 mM EDTA. Relative luciferase reading from the blood collected represents the tumor burden in each animal. The reading was performed with blood collected at day 19 post inoculation when all mice were still alive.

[12] = test system: AT6.1 Dunning rat prostate carcinoma; test: Survival in intravenous AT6.1 Dunning rat prostate carcinoma lung metastasis model; assay type: in vivo, nu/nu mice; details: for average survival time: FIG. 5 (carrier only 20.4 days); for percent increase in life span (ILS %): 100 mg/kg i.p. three times a week, over vehicle-treated mice
Protocol: Many anti-tumor drugs are tested only for their ability to prevent primary tumor growth or to prevent the dissemination of metastatic cells. To accomplish this, the drug is usually administered shortly after the primary tumor is established. […] The benzimidazoles described herein were evaluated in an experimental metastases model in the lungs of nude mice following tail-vein injection of Dunning rat AT6.1 prostate carcinoma. […] In order to achieve greater bioavailability, we first solubilized benzimidazoles in DNTC formulation and then diluted with saline prior to injection.
Inbred male nu/nu mice age 6-8 weeks were obtained from Massachusetts General Hospital (Boston, Mass.). The mice were virus antibody free, age and weight matched for experimental use and fed with a balanced rodent diet ad libitum. AT6.1 Dunning rat prostate cells were maintained as described above. 1×10^4 log-phase cells were injected via tail vein in 0.1 mL Hanks solution. Vehicle or drug treatment was started on day 5 post inoculation and given three times a week (Monday, Wednesday and Friday) via intraperitoneal injection in 0.5 mL volume. Benzimidazole drugs were prepared in the combination carrier [DMSO (12.5%), NMP (37.5%), TWEEN®-80 (25%) and CrEL (25%)] and diluted in saline. Vehicle control was prepared by diluting the combination carrier with saline.
During the course of treatment, the mice were monitored for toxicity by measuring body weight. […] Animals were euthanized with CO2 and tissues were collected for further analysis. The animals and experiments used in these studies were approved by the institutional animal care committee according to Children's Hospital Boston ARCH guidelines.
To distinguish differences in survival between these groups, the percent increase in life span (ILS %), defined as the percent increase in the mean time to death of drug-treated animals over the corresponding time to death for vehicle-treated mice, was calculated.

[13] = test system: MES-SA human uterine sarcoma cells; test: Cell viability, MES-SA; assay type: cell-based; details: read-out: ED50 MES-SA
Text: as §7

[14] = test system: DU145 cells; test: % apoptotic cells, DU145; assay type: cell-based, human; details: 1 μM
[15] = test system: PC3 human prostate cancer cells; test: Cyquant cell viability assay, PC3; assay type: cell-based; details: 72 hours, read-out: ED50 PC3
Protocol: as §6

[16] = test system: PC3M cells; test: Annexin V/7-AAD apoptosis by flow cytometry, PC3M; assay type: cell-based, human; details: 1 μM, 72 hours, combination carrier
Protocol: All benzimidazole drugs were solubilized in the combination carrier. After 72 hours, the cells were analyzed by annexin V/7-AAD staining.
as §5

[17] = test system: PC3-TR cells; test: % apoptotic cells, PC3-TR; assay type: cell-based, human; details: 1 μM
[18] = Combination with paclitaxel, Cyquant cell growth inhibition, CompuSyn median-dose effect analysis; assay type: cell-based; details: Fa 0.50; alone or in combination; read-out: Dose MBZ
Protocol: Cell growth inhibition assays were performed using Cyquant reagent as described above. Drug interactions were quantitated by median-dose effect analysis and combination index values as well as dose reduction index were derived using CompuSyn software (ComboSyn, Inc.), as described previously in the literature. CI values of <1, =1, and >1 indicate synergism, additivity and antagonism between the drugs, respectively.
All benzimidazole drugs were prepared using the combination carrier and diluted with culture medium prior to treatment.

[19] = test system: DU145-TR cells; test: % apoptotic cells, DU145-TR; assay type: cell-based, human; details: 1 μM
[20] = test system: PC-3MLN4 cells; test: Normalized mitotic index (histone H3 phospho-Serine-28), PC-3MLN4; assay type: cell-based; details: Homo sapiens, at 1 μM; normalized against vehicle-treated cells; read-out: Normalized mitotic index PC-3MLN4
Text: as §1

[21] = test system: tubulin; test: In vitro tubulin polymerization assay; assay type: biochemical
Text: Using an in vitro tubulin polymerization assay, it was confirmed that benzimidazoles disrupt microtubule polymerization.

[22] = combination carrier, Table 2, read-out: ED50 PC3M
[23] = 50 mg/kg i.p. three times a week from day 5

EC50 [2, 22]: 1430 nM
SMILES: COC(=O)Nc1nc2cc(C(=O)c3ccc(F)cc3)ccc2[nH]1 [Flubendazole, flubendazole]
fold induction at 1 µM [1]: > 1
cytotoxicity in highly metastatic cells relative to PC-3M [3]: greater cytotoxicity
cytotoxic activity via apoptosis in highly metastatic prostate cancer cells [4]: induction of apoptosis
fold induction at 1 µM [5]: > 1

SMILES: COC(=O)Nc1nc2ccc(C(=O)c3ccccc3)cc2[nH]1 [Mebendazole, mebendazole]
EC50 [2, 22]: 1210 nM
EC50 [6]: 2970 nM
EC50 [7]: 790 nM
EC50 [8]: 5900 nM
EC50 [9]: 750 nM
apoptotic cells in PC3MLN4 ([4]; 1 μM, 72 hours, combination carrier): 17.6%
% Apoptotic cells (72 hours) PC3 [10]: 11.9%
reduction in tumor burden ([11]; blood collected at day 19, FIG. 8): most pronounced
tumor burden compared to the control ([11]; until day 22, FIG. 9): significant reduction in tumor burden
average survival time [12, 23]: 29 days
average survival time ([12]; 100 mg/kg i.p. three times a week from day 5): 34.6 days
percent increase in life span (ILS %) [12]: 48.9%
survival ([12]; 100 mg/kg, FIG. 6 (control 24.25 days)): 36.13 days
EC50 [13]: 1270 nM
% Apoptotic cells (72 hours) DU145 [14]: 16.4%
EC50 [15]: 2850 nM
apoptotic cells in PC3M [16]: 16.8%
% Apoptotic cells (72 hours) PC3-TR [17]: 21.5%
EC50 [18]: 17500 nM
% Apoptotic cells (72 hours) DU145-TR [19]: 36.7%

SMILES: c1ccc2[nH]c(-c3cscn3)nc2c1 [Thiabendazole, thiabendazole]
fold induction at 1 µM [1]: 0.98
fold induction at 1 µM [5]: 0.96
fold induction at 1 µM [20]: 0.99

SMILES: COC(=O)NC(=S)Nc1ccccc1NC(=S)NC(=O)OC [Thiophanate methyl, thiophanate-methyl]
fold induction at 1 µM [1]: 0.95
fold induction at 1 µM [5]: 0.96
fold induction at 1 µM [20]: 0.95

SMILES: CCCOc1ccc2nc(NC(=O)OC)[nH]c2c1 [Oxibendazole, oxibendazole]
fold induction at 1 µM [1]: > 1
EC50 ([2]; solubilized in DMSO alone, 72 hours, read-out: ED50 PC3M DMSO): 8820 nM
cytotoxicity in highly metastatic cells relative to PC-3M [3]: greater cytotoxicity
EC50 ([3]; Homo sapiens, 72 h, read-out: ED50 PC3MLN4 DMSO): 4120 nM
cytotoxic activity via apoptosis in highly metastatic prostate cancer cells [4]: induction of apoptosis
average survival time [12, 23]: 27.4 days
fold induction at 1 µM [5]: > 1
fold induction at 1 µM [20]: 1.8 to 2

SMILES: COC(=O)Nc1nc2ccccc2[nH]1 [Carbendazim, carbendazim]
fold induction at 1 µM [1]: 0.91
fold induction at 1 µM [5]: 1.08
fold induction at 1 µM [20]: 1

SMILES: CCCCNC(=O)n1c(NC(=O)OC)nc2ccccc21 [Benomyl, benomyl]
fold induction at 1 µM [1]: 0.91
percent increase in life span (ILS %) [12]: 7.5%
fold induction at 1 µM [5]: 1.08
fold induction at 1 µM [20]: 0.99
tubulin disrupting effect [21]: strongest tubulin disrupting effect
